Experimental data: patent US5032595A, “Method of stimulating steroidogenesis with alpidem” (FIDIA-Georgetown Institute for the Neurosciences, priority 1989, dated 1991)

Assays:
[1] = tested on: purified rat Leydig cells; experiment: Testosterone production by purified rat Leydig cells, basal and hCG stimulated; conditions: for Testosterone, No Additions / stimulation of testosterone production / effect on testosterone production (in words): basal; for Testosterone, No Additions / Testosterone, hCG (50 ng/ml): 4 hours at 32° C., mean ± S.D. n = 3; for Testosterone, No Additions: control 1.30 ± 0.20; for Testosterone, hCG (50 ng/ml): control 15.13 ± 2.05; for stimulation of testosterone production / effect on testosterone production (in words): purified rat Leydig cells; for stimulation of testosterone production: 240 min
[2] = target: T1, peripheral-type benzodiazepine receptor (PBR) in Y-1 cells (Mus musculus, UniProt P50637); experiment: [3H]PK 11195 binding in Y-1 adrenocortical cells; conditions: 37° C.; for rank order of compound displacement potency against [3H]PK 11195 binding: FIG. 2a
T1 construct: Y-1 cell cultures were scraped from the flasks; host or cells: Y-1 mouse adrenal tumor cells
Description: (§1) Cells--The Y-1 adrenal mouse tumor cell line used in these studies was obtained from the American Type Culture Collection (ATCC #CCL 79). Stock cultures were grown in modified Waymouth's MB752/l medium containing 20 mM HEPES, 1.2 g/l NaHCO3, 15% horse serum and 2.5% fetal calf serum, pH 7.4. Before use the cells were washed three times at 30 min intervals, with serum-free media in order to eliminate serum components that may interfere with the assays and were incubated for the indicated time periods in the presence of the drugs under investigation. Bovine fasciculata-reticularis and adrenocortical cells from adult (300 g) Sprague-Dawley rats were prepared as previously described by Yanagibashi et al, (1989) Endocrinology 124; 2838-2391.
Radioligand binding assays--Y-1 cell cultures were scraped from the flasks ([…]) in 5 ml of Kreb's buffer, dispersed by repetitive pipetting, and centrifuged at 1,200 × g for 5 min. The cell pellets were resuspended in Kreb's buffer and larger cellular aggregates were allowed to settle for 5 min. The finely dispersed cell suspensions were taken for further experimentation.
Binding assays were performed in a total volume of 250-400 ul of Kreb's buffer containing [^3 H]PK 11195 (0.07-20 nM) with 5 ug of cellular protein. Incubations were conducted at 37° C. for 30 min and bound radioligand was measured by filtration through Whatman GF/C filters followed by four rapid 5 ml washes with 25 mM Tris-HCl (pH 7.4) containing 1 uM PK 11195. Filters were subjected to liquid scintillation counting. Nonspecific binding was measured in the presence (of 10 uM nonradioactive PK 11195.

MA-10 Leydig cells = experiment: Progesterone production in MA-10 Leydig cells; format: cell-based, mouse; conditions: MA-10 cells, 4 hours incubation
Description: (§2) Cells--The MA-10 cell line originally cloned from the solid M5480P mouse Leydig cell tumor used in these experiments was obtained from Dr. Mario Ascoli (The Population Council, Rockefeller University, N.Y.). Stock cultures were grown in modified Waymouth's MB752/1 medium containing 20 mM HEPES, 1.2 g/l NaHCO3 and 15% horse serum, pH 7.4 as described by Ascoli (1981) Endocrinology 108, 88-95. Before use, the MA-10 Leydig cells were washed three times, in 30 min intervals, with serum-free media in order to eliminate serum components that may interfere with the assays and incubated for the indicated periods of time in the presence of the indicated substances. Testicular interstitial cells were prepared by enzymatic dissociation of testes obtained from adult Sprague-Dawley (300 g) rats. This preparation contained 20-30% 3β-hydroxysteroid dehydrogenase positive cells (Leydig cells). Leydig cells were further purified using discontinuous Percoll gradient centrifugation as described by Papadopoulos et al., 1985 FEBS Letters 188, 312-316. The preparations obtained contained 75-85% Leydig cells as shown by the histochemical staining for 3β-hydroxysteroid dehydrogenase by the procedure of Papadopoulos et al., FEBS Letters 188, supra. [^3 H]PK 11195 binding assays--Cells were scraped from 75 cm^2 culture flasks into 5 ml of Kreb's buffer, dispersed by trituration, and centrifuged at 1,200 × g for 5 min. The cell pellets were resuspended in buffer and larger cell aggregates were allowed to settle to the bottom of the tube before the cell suspension was retrieved for experimentation.
Steroid Biosynthesis--These experiments were performed with the MA-10 Leydig cells plated in 12×22 mm wells and incubated for the times shown and in the presence of the indicated substances at a final volume of 1 ml of serum-free media at 37° C. […]
Progesterone and 20-γ-hydroxyprogesterone production for the MA-10 cells, and testosterone accumulation for the rat Leydig cells were measured by means of radioimmunoassay. […]

PBR in MA-10 cells = target: T2, PBR in MA-10 cells (Mus musculus, UniProt P50637); experiment: [3H]PK 11195 binding in MA-10 Leydig cells; conditions: 37° C.
T2 construct: endogenous in cells; host or cells: MA-10 mouse Leydig tumor cells (from Dr. Mario Ascoli)
Description: as §2
[^3 H]PK 11195 binding studies on 5 ug of protein from the cell suspensions were performed in 250-400μl of Kreb's buffer at 37° C., essentially the same conditions under which the
effects of the compounds on steroidogenesis were studied. Nonspecific binding was determined in the presence of 10 μM PK 11195. […] Radioactivity trapped on the filters was determined by liquid scintillation counting. […]

[3] = Serum testosterone after intravenous alpidem in rats (dosing studies); format: in vivo; conditions: adult Sprague-Dawley rats
Description: Alpidem was suspended in isotonic saline by sonication and administered intravenously to adult Sprague-Dawley rats (200-300 g). The doses used ranged from 0.01-1.5 mg/kg, the highest concentration being just below the level needed for behavioral effects to be observed. Control rats were injected with saline alone to serve as control for measurement of basal serum levels of testosterone. After specific times the rats were killed by decapitation and blood was collected. Serum was prepared and testosterone was measured by radioimmunoassay. Each point included three rats for all permutations of each time point and concentration of alpidem used.

Y-1 adrenocortical cells = experiment: Steroid (20-hydroxyprogesterone) secretion in Y-1 cells; format: cell-based, mouse
Description: as §1
Measurement of steroid production--These experiments were performed with the Y-1 cells plated in 12--22 mm wells and incubated for the times shown at a final volume of 1 ml of serum-free media at 37° C. […] Steroid production was determined by measuring 20-γ-hydroxyprogesterone, the main steroid product of these cells, using a radioimmunoassay with an antibody donated by Dr. G. Nieswender (Univ. of Colorado, Fort Collins), under the process described in Kowal J. (1970), Recent Progress in Hormone Research 26, 623-687 and Schimmer B.P. (1981) in Functionally Differentiated Cell Lines, ed. […]

[4] = read-out: dissociation constant (Scatchard analysis)

T1 sequence (P50637 whole entry): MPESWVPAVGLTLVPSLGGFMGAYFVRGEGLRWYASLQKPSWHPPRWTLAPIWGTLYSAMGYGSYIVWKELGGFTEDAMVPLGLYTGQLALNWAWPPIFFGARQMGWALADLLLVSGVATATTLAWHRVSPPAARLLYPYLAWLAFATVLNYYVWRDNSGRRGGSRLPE
T2 sequence (P50637 whole entry): as above

## CC(Cc1cc(-c2ccccc2)nc2ccccc12)C(=O)N(C)C (single isomer, unassigned; (+)) [PK 14068, (+) N,N-dimethyl-x-methyl-2-phenyl-4-quinoline propanamide]
[1]; compound 10^-5 M
  Testosterone, No Additions: 1.16 ± 0.15 ng/10^5 cel s/4 hours
  Testosterone, hCG (50 ng/ml): 13.50 ± 1.51 ng/10^5 cel s/4 hours
[2]
  rank order of compound displacement potency against [3H]PK 11195 binding: alpidem>PK 11195>PK 14067>4'-chlorodiazepam>zolpidem>PK 14608, diazepam>flunitrazepam>clonazepam>flumazenil

## CC(Cc1cc(-c2ccccc2)nc2ccccc12)C(=O)N(C)C (single isomer, unassigned; (-)) [PK 14067, (-) N,N-dimethyl-x-methyl-2-phenyl-4-quinoline propanamide]
[1]; compound 10^-6 M
  Testosterone, No Additions: 2.20 ± 0.30 ng/10^5 cel s/4 hours
  Testosterone, hCG (50 ng/ml): 14.13 ± 1.49 ng/10^5 cel s/4 hours
MA-10 Leydig cells
  stimulation of progesterone production: 3 to 4 fold
[2]
  rank order of compound displacement potency against [3H]PK 11195 binding: alpidem>PK 11195>PK 14067>4'-chlorodiazepam>zolpidem>PK 14608, diazepam>flunitrazepam>clonazepam>flumazenil

## CCC(C)N(C)C(=O)c1cc2ccccc2c(-c2ccccc2Cl)n1 (stereo not drawn) [PK 11195, 1-(2-chlorophenyl)-N-methyl-N-(l-methylpropyl)-3-isoquinoline carboxamide]
[1]; compound 10^-6 M
  Testosterone, No Additions: 2.33 ± 0.21 ng/10^5 cel s/4 hours
  Testosterone, hCG (50 ng/ml): 14.86 ± 1.51 ng/10^5 cel s/4 hours
[1]
  stimulation of testosterone production: about 2 fold
PBR in MA-10 cells
  density of binding sites: 56 pmol/mg of protein
  time to reach steady-state specific binding: 10 min
PBR in MA-10 cells; [4]
  Kd: 1.8 nM
MA-10 Leydig cells
  stimulation of progesterone production: 3 to 4 fold
[2]
  Bmax: 54 pmol/mg of protein
  time to reach binding equilibrium: ≤ 15 min
  rank order of compound displacement potency against [3H]PK 11195 binding: alpidem>PK 11195>PK 14067>4'-chlorodiazepam>zolpidem>PK 14608, diazepam>flunitrazepam>clonazepam>flumazenil
[2]; [4]
  Kd: 1.8 nM

## CCCN(CCC)C(=O)Cc1c(-c2ccc(Cl)cc2)nc2ccc(Cl)cn12 [alpidem]
[3]
  time for which elevated testosterone levels were maintained: at least 4 hours
[3]; doses greater than or equal to 0.01 mg/kg
  increase in serum testosterone levels: 2-4 times above control levels
[1]; compound 10^-7 M
  Testosterone, No Additions: 2.35 ± 0.27 ng/10^5 cel s/4 hours
  Testosterone, hCG (50 ng/ml): 15.02 ± 2.31 ng/10^5 cel s/4 hours
[1]
  stimulation of testosterone production: about 2 fold
MA-10 Leydig cells
  stimulation of progesterone production: 3 to 4 fold
[2]
  rank order of compound displacement potency against [3H]PK 11195 binding: alpidem>PK 11195>PK 14067>4'-chlorodiazepam>zolpidem>PK 14608, diazepam>flunitrazepam>clonazepam>flumazenil

## O=C1CN=C(c2ccccc2Cl)c2cc([N+](=O)[O-])ccc2N1 [clonazepam]
[1]; compound 10^-5 M
  Testosterone, No Additions: 1.16 ± 0.11 ng/10^5 cel s/4 hours
  Testosterone, hCG (50 ng/ml): 14.90 ± 2.22 ng/10^5 cel s/4 hours
[1]
  effect on testosterone production (in words): no effect
Y-1 adrenocortical cells
  effect on steroid production (in words): failed to stimulate steroid production
[2]
  rank order of compound displacement potency against [3H]PK 11195 binding: alpidem>PK 11195>PK 14067>4'-chlorodiazepam>zolpidem>PK 14608, diazepam>flunitrazepam>clonazepam>flumazenil

## CN1C(=O)CN=C(c2ccccc2)c2cc(Cl)ccc21 [diazepam]
[1]; compound 10^-5 M
  Testosterone, No Additions: 1.90 ± 0.10 ng/10^5 cel s/4 hours
  Testosterone, hCG (50 ng/ml): 14.96 ± 3.09 ng/10^5 cel s/4 hours
[1]
  effect on testosterone production (in words): less potent
[2]
  rank order of compound displacement potency against [3H]PK 11195 binding: alpidem>PK 11195>PK 14067>4'-chlorodiazepam>zolpidem>PK 14608, diazepam>flunitrazepam>clonazepam>flumazenil

## CCOC(=O)c1ncn2c1CN(C)C(=O)c1cc(F)ccc1-2 [flumazenil]
Y-1 adrenocortical cells
  effect on steroid production (in words): failed to stimulate steroid production
[2]
  rank order of compound displacement potency against [3H]PK 11195 binding: alpidem>PK 11195>PK 14067>4'-chlorodiazepam>zolpidem>PK 14608, diazepam>flunitrazepam>clonazepam>flumazenil

## CN1C(=O)CN=C(c2ccccc2F)c2cc([N+](=O)[O-])ccc21 [flunitrazepam]
[2]
  rank order of compound displacement potency against [3H]PK 11195 binding: alpidem>PK 11195>PK 14067>4'-chlorodiazepam>zolpidem>PK 14608, diazepam>flunitrazepam>clonazepam>flumazenil

## Cc1ccc(-c2nc3ccc(C)cn3c2CC(=O)N(C)C)cc1 [zolpidem]
[2]
  rank order of compound displacement potency against [3H]PK 11195 binding: alpidem>PK 11195>PK 14067>4'-chlorodiazepam>zolpidem>PK 14608, diazepam>flunitrazepam>clonazepam>flumazenil
